The target in experiment [1] is T1, KCNQ2 homomers (Kv7.2 homomers) (Homo sapiens, UniProt O43526).
T1 construct: expressed in transfected cells; host or cells: CHO cells
Description: Whole cell voltage-clamp, wildtype KCNQ2 homomers expressed in CHO cells. As to conditions: 10.0 μM ezogabine; FIG. 11. The experiment is classed as cell-based. How it is done:
Biological Assay Methods—Using lipid mediated transfection, plasmids including only wildtype (wt) KCNQ2, only wt KCNQ3, or both wt KCNQ2 and wt KCNQ3 subunits were expressed in Chinese hamster ovary (CHO) cells. Whole cell voltage-clamp protocols were used to measure gating and conductance density of wt channels before, during and after test compound application via focal pipette perfusion. The half-activating voltage (V1/2) was determined by Boltzmann fits of the conductance-voltage (G/V) curves.
Four highly recurrent KCNQ2-EE missense variants (FIG. 3), R210H (located in S4 of the voltage-sensor), T274M (located in the pore helix), A294V (located at the border of the pore loop and S6), and R581Q/L (located in the intracellular helix C), were introduced into KCNQ2 cDNA by QuikChange site-directed mutagenesis. R210H is in S4 of the voltage-sensor, T274M is in the pore helix, A294V is at the border of the pore loop and S6, and R581Q is in the intracellular helix C. Using lipid-mediated transfection, plasmids including the pathogenic variants were co-expressed with wildtype KCNQ2 or KCNQ2 and KCNQ3 subunits in Chinese hamster ovary (CHO) cells. The KCNQ2 S5 helix mutation W236L, which abolishes EZO modulation, was used to characterize Compound A binding. […]

Experiment [2] addresses T2, KCNQ2 W236L (Homo sapiens, UniProt O43526, W236L).
T2 construct: expressed in transfected cells; host or cells: CHO cells
Put plainly: Whole cell voltage-clamp, KCNQ2 W236L channels in CHO cells. The experiment is classed as cell-based. The source says:
Four highly recurrent KCNQ2-EE missense variants (FIG. 3), R210H (located in S4 of the voltage-sensor), T274M (located in the pore helix), A294V (located at the border of the pore loop and S6), and R581Q/L (located in the intracellular helix C), were introduced into KCNQ2 cDNA by QuikChange site-directed mutagenesis. R210H is in S4 of the voltage-sensor, T274M is in the pore helix, A294V is at the border of the pore loop and S6, and R581Q is in the intracellular helix C. Using lipid-mediated transfection, plasmids including the pathogenic variants were co-expressed with wildtype KCNQ2 or KCNQ2 and KCNQ3 subunits in Chinese hamster ovary (CHO) cells. The KCNQ2 S5 helix mutation W236L, which abolishes EZO modulation, was used to characterize Compound A binding. Whole cell voltage-clamp protocols were used to measure gating and conductance of wildtype channels and mutated subunit containing channels, before, during and after Compound A application via focal pipette perfusion.

Here are results for one compound from patent publication US12370176B2, “Methods of use for KV7 channel activators” (Biohaven Therapeutics Ltd., priority 2019, dated 2025).

For the compound `CCOC(=O)Nc1ccc(NCc2ccc(F)cc2)cc1N` [EZO, ezogabine], the current density result in experiment [1] is listed as “increased”; in experiment [2] (W236L channels, 10.0 μM ezogabine, FIG. 14) it was “did not affect”. The “dependence of KCNQ2 homomer activation on W236” value in experiment [2] (wildtype KCNQ2 versus W236L) is reported as “requires W236, like EZO”.
